Assay results taken from paper PMC11278161 (Marine Drugs, 2024).

Test system: A549 cells
Assay: cells
Settings: Homo sapiens, A549, 72 h, read-out: IC50, cytotoxicity for A549

CC[C@@]1(O)C(=O)OCc2c1cc1n(c2=O)Cc2cc3ccccc3nc2-1 [CPT, Camptothecin]
IC50: 260 nM
